Experiments:
human mGluR5d = target: T1, human mGluR5d (Homo sapiens, UniProt P41594); assay: FLIPR assay, mobilization of intracellular calcium in cells expressing human mGluR5d; format: cell-based; conditions: antagonism of agonist response, read-out: FLIPR hmGluR5d
T1 construct: expressed in transfected cells
From the text: The properties of the compounds of the invention can be analyzed using standard assays for pharmacological activity. Examples of glutamate receptor assays are well known in the art as described in for example Aramori et al., Neuron 8:757 (1992), Tanabe et al., Neuron 8:169 (1992), Miller et al., J. Neuroscience 15: 6103 (1995), Balazs, et al., J. Neurochemistry 69:151 (1997). The methodology described in these publications is incorporated herein by reference. Conveniently, the compounds of the invention can be studied by means of an assay (FLIPR) that measures the mobilization of intracellular calcium, [Ca^2+]i in cells expressing mGluR5 or another assay (IP3) that measures inositol phosphate turnover.
Cells expressing human mGluR5d as described in WO97/05252 cultured in a mixture of high glucose DMEM with Glutamax (31966-021)(500 mL), 10% dialyzed fetal bovine serum (Hyclone #SH30079.03)(56 mL), 200 μg/mL Hygromycin B (Invitrogen 45-0430, 50 mg/mL)(2.2 mL), 200 μg/mL Zeocin (Invitrogen #R250-01; 100 mg/mL)(1.1 mL) are seeded at a density of 100,000 cells per well on collagen coated clear bottom 96-well plates with black sides and cells were allowed to adhere over night before experiments. All assays are done in a buffer containing 146 mM NaCl, 5 mM KCl, 1 mM MgCl2, 1 mM CaCl2, 20 mM HEPES, 1 mg/mL glucose and 1 mg/mL BSA Fraction IV (pH 7.4). Cell cultures in the 96-well plates are loaded for 60 minutes in the above mentioned buffer containing 6 μM of the acetoxymethyl ester form of the fluorescent calcium indicator fluo-3 (Molecular Probes, Eugene, Oreg.) in 0.025% pluronic acid (a proprietary, non-ionic surfactant polyol—CAS Number 9003-11-6). Following the loading period the fluo-3 buffer is removed and replaced with fresh assay buffer. FLIPR experiments are done using a laser setting of 0.700 W and a 0.4 second CCD camera shutter speed with excitation and emission wavelengths of 488 nm and 562 nm, respectively. Each experiment is initiated with 160 μl of buffer present in each well of the cell plate. A 40 μl addition from the antagonist plate was followed by a 50 μL addition from the agonist plate. A 30 minutes, in dark at 25° C., interval separates the antagonist and agonist additions. The fluorescence signal is sampled 50 times at 1-second intervals followed by 3 samples at 5-second intervals immediately after each of the two additions. Responses are measured as the difference between the peak heights of the response to agonist) less the background fluorescence within the sample period. IC50 determinations are made using a linear least squares fitting program.

[1] = Determination of brain to plasma ratio in rat; format: in vivo; conditions: brain and plasma, female Sprague Dawley rats, drug in brain over drug in plasma, read-out: Brain/Plasma Ratio of compound in Rat
Method: Brain to plasma ratios are estimated in female Sprague Dawley rats. The compound is dissolved in water or another appropriate vehicle. For determination of brain to plasma ratio the compound is administrated as a subcutaneous, or an intravenous bolus injection, or an intravenous infusion, or an oral administration. At a predetermined time point after the administration a blood sample is taken with cardiac puncture. The rat is terminated by cutting the heart open, and the brain is immediately retained. The blood samples are collected in heparinized tubes and centrifuged within 30 minutes, in order to separate the plasma from the blood cells. The plasma is transferred to 96-well plates and stored at −20° C. until analysis. The brains are divided in half, and each half is placed in a pre-tarred tube and stored at −20° C. until analysis. Prior to the analysis, the brain samples are thawed and 3 mL/g brain tissue of distilled water is added to the tubes. The brain samples are sonicated in an ice bath until the samples are homogenized. Both brain and plasma samples are precipitated with acetonitrile. After centrifugation, the supernatant is diluted with 0.2% formic acid. Analysis is performed on a short reversed-phase HPLC column with rapid gradient elution and MSMS detection using a triple quadrupole instrument with electrospray ionization and Selected Reaction Monitoring (SRM) acquisition. Liquid-liquid extraction may be used as an alternative sample clean-up. The samples are extracted, by shaking, to an organic solvent after addition of a suitable buffer. An aliquot of the organic layer is transferred to a new vial and evaporated to dryness under a stream of nitrogen. After reconstitution of the residuals the samples are ready for injection onto the HPLC column.

T1 sequence (P41594 21-942 isoform P41594-3 limits assumed): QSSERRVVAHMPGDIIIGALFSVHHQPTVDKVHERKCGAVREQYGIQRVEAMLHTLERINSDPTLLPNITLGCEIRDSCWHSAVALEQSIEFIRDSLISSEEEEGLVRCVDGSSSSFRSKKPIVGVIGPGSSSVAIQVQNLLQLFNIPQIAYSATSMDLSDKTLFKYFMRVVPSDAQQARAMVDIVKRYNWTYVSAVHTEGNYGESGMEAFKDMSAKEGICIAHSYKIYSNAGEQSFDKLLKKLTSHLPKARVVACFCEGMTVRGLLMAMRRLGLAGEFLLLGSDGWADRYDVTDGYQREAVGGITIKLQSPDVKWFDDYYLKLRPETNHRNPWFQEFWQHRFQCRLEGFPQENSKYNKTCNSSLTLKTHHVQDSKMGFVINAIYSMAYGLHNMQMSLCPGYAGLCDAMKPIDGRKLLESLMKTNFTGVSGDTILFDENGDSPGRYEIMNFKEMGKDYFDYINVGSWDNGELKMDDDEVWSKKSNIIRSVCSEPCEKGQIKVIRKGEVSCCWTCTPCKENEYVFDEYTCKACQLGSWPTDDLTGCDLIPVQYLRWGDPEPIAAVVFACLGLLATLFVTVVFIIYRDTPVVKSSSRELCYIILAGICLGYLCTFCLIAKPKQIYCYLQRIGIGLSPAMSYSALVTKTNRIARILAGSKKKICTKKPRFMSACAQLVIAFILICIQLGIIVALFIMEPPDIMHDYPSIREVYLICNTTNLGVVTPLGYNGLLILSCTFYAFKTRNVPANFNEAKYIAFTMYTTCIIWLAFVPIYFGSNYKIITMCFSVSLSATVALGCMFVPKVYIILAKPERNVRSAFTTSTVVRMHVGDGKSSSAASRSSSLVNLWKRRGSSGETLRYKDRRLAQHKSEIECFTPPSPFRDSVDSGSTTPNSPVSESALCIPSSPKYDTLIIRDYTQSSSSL

## Cn1c(-c2cn[nH]c(=O)c2)nnc1N1[C@@H](c2cc(-c3csc(Cl)c3)on2)C[C@H]2C[C@H]21 [Example 10.1, 5-(5-{(1R,3R,5R)-3-[5-(5-Chloro-3-thienyl)isoxazol-3-yl]-2-azabicyclo[3.1.0]hex-2-yl}-4-methyl-4H-1,2,4-triazol-3-yl)pyridazin-3(2H)-one]
Human mGluR5d
  IC50: 34 nM
[1]
  Kp: 0.06

## Cn1c(-c2cc[nH]c(=O)c2)nnc1N1[C@@H](c2cc(-c3csc(Cl)c3)on2)C[C@H]2C[C@H]21 [Example 10.2, 4-(5-{(1R,3R,5R)-3-[5-(5-Chloro-3-thienyl)isoxazol-3-yl]-2-azabicyclo[3.1.0]hex-2-yl}-4-methyl-4H-1,2,4-triazol-3-yl)pyridin-2(1H)-one]
Human mGluR5d
  IC50: 35 nM
[1]
  Kp: < 0.01

## Cn1c(-c2cnn(C)c(=O)c2)nnc1N1CCC[C@@H]1c1cc(-c2csc(Cl)c2)on1 [Example 10.3, 5-(5-{(2R)-2-[5-(5-Chloro-3-thienyl)isoxazol-3-yl]pyrrolidin-1-yl}-4-methyl-4H-1,2,4-triazol-3-yl)-2-methylpyridazin-3(2H)-one]
Human mGluR5d
  IC50: 61 nM
[1]
  Kp: 0.16

## Cn1c(-c2cn[nH]c(=O)c2)nnc1N1CCC[C@@H]1c1cc(-c2csc(Cl)c2)on1 [Example 10.4, 5-(5-{(2R)-2-[5-(5-Chloro-3-thienyl)isoxazol-3-yl]pyrrolidin-1-yl}-4-methyl-4H-1,2,4-triazol-3-yl)pyridazin-3(2H)-one]
Human mGluR5d
  IC50: 39 nM
[1]
  Kp: < 0.01

## Cn1c(-c2ccn(C)c(=O)c2)nnc1N1CCC[C@@H]1c1cc(-c2csc(Cl)c2)on1 [Example 10.5, 4-(5-{(2R)-2-[5-(5-Chloro-3-thienyl)isoxazol-3-yl]pyrrolidin-1-yl}-4-methyl-4H-1,2,4-triazol-3-yl)-1-methylpyridin-2(1H)-one]
Human mGluR5d
  IC50: 44 nM
[1]
  Kp: 0.03

## Cn1c(-c2cc[nH]c(=O)c2)nnc1N1CCC[C@@H]1c1cc(-c2csc(Cl)c2)on1 [Example 10.6, 4-(5-{(2R)-2-[5-(5-Chloro-3-thienyl)isoxazol-3-yl]pyrrolidin-1-yl}-4-methyl-4H-1,2,4-triazol-3-yl)pyridin-2(1H)-one]
Human mGluR5d
  IC50: 35 nM
[1]
  Kp: < 0.01

— patent publication US20090111825A1, “THIOPHENE 1,2,4-TRIAZOLE DERIVATIVES AS MODULATORS OF MGLUR5” (priority 2007, published 2009)
